For assay [1], the system named is enzyme associated with Bacillus stearothermophilus spores. Kind of assay: Rapid enzyme fluorescence readout of dual rapid readout indicators after prevacuum steam sterilization. The class given is biochemical. The note with it: 4-pulse prevacuum steam 121° C.; for FLUORESCENCE - PERCENT POSITIVE 1 HR / FLUORESCENCE - PERCENT POSITIVE 2 HR / FLUORESCENCE - PERCENT POSITIVE 3 HR / FLUORESCENCE - PERCENT POSITIVE 4 HR: Example 4, 7–18 min. In a few lines: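 Bacillus stearothermophilus ATCC 7953 spores were coated with a sterilant-resistant chemical solution and pipetted onto paper strips at about 1×10^6 spores per strip. Each strip sat in a dual rapid readout indicator beside a crushable inner container of nutrient medium holding 4-methylumbelliferyl-alpha-D-glucoside at pH 7.6. Indicators went through a 4-pulse prevacuum steam cycle at 121° C, were activated, incubated at 60° C, and read for fluorescence on a 3M ATTEST Model 190 Rapid Autoreader.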

Assay [2] concerns Bacillus stearothermophilus spores. Kind of assay: Spore outgrowth (color change) of indicators after prevacuum steam sterilization. Type of assay: cell-based. Particulars: Example 4, 4-pulse prevacuum steam 121° C., 7–18 min. In a few lines:
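Bacillus stearothermophilus ATCC 7953 spores were cleaned, mixed into a heated sterilant-resistant coating chemical solution and pipetted onto paper strips at about 1×10^6 spores per strip. The strips were dried and placed in indicators, then exposed to a 4-pulse prevacuum steam cycle at 121° C. After exposure the media ampoule was crushed, and growth was judged visually as a purple-to-yellow color change after 168 hours at 60° C.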

Assay [3] deals with enzyme associated with Bacillus stearothermophilus spores. Kind of assay: Rapid enzyme fluorescence readout of indicators after hydrogen peroxide plasma sterilization. The class given is biochemical. The note with it: for FLUORESCENCE - PERCENT POSITIVE 1 HR / FLUORESCENCE - PERCENT POSITIVE 2 HR / FLUORESCENCE - PERCENT POSITIVE 3 HR / FLUORESCENCE - PERCENT POSITIVE 4 HR / FLUORESCENCE - PERCENT POSITIVE 5 HR: 1–22 min diffusion. In a few lines:
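Indicators with a TYVEK closure held spores coated with various chemicals and were exposed to hydrogen peroxide plasma at 45–55 °C: 6–7 mg/ml chamber peroxide, diffusing 1–22 min at 6–10 Torr. Enzyme fluorescence was read hourly for 5 h at 60 °C. Growth was scored visually as a purple-to-yellow change after 168 h.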

The test system of assay [4] is Bacillus stearothermophilus spores. Nature of the assay: Spore outgrowth (color change) of indicators after hydrogen peroxide plasma sterilization. Type of assay: cell-based. The note with it: 1–22 min diffusion. As to the method: Sterilization indicators for Examples 6–9 were prepared as described above with the exception that closure member 22 of the sterilization indicator was constructed of TYVEK™ high-density polyethylene fiber material, commercially available from E.I. du Pont de Nemours and Co., Wilmington, Del.
(§1) Sterilization indicators were made as described above with spores that had been coated with each of the chemicals and concentrations listed in Table 6. The indicators were placed in instrument trays and exposed to a hydrogen peroxide plasma sterilization procedure at 45–55° C. in a STERRAD™ 100SI GMP Sterilizer, obtained from Advanced Sterilization Products Co., Irvine, Calif. During the sterilization procedure a vacuum was drawn in the sterilization chamber for 5–6 minutes until the pressure was reduced to 300 mTorr. A 1.8 ml aliquot of an aqueous solution of 58–60% hydrogen peroxide was then injected into the sterilization chamber over a period of about 6 minutes, yielding an empty chamber concentration of […] hydrogen peroxide, and hydrogen peroxide vapor was allowed to diffuse throughout the chamber for 1–22 minutes at 6–10 Torr. A vacuum was then drawn, reducing the pressure to 500 mTorr and removing all detectable hydrogen peroxide vapor from the chamber.
After exposure to the sterilization procedure, the indicators were removed from the sterilizer and the inner containers containing the enzyme substrate and nutrient medium were crushed. The indicators were then incubated at 60° C. and examined for fluorescence every hour for 5 hours using a 3M™ ATTEST™ Model 190 Rapid Autoreader, commercially available from 3M Company, St. Paul, Minn. Additionally, spore growth, as indicated by a color change from purple to yellow, was determined visually after 168 hours of incubation.
The number of growth positive indicators detected after 168 hours of incubation is recorded in Table 6.
as §1, with “7.” for “6.”
as §1, with “8.” for “6.”, “chamber. […]” for “chamber.”

Consider Decaglyceryl Dipalmitate, for which, in assay [1], the “accuracy of sterilization indicators compared to indicators made with untreated spores” value is listed as “improved”. For the same substance, the “FLUORESCENCE - PERCENT POSITIVE 1 HR” value in assay [1] (50 mg/ml coating) stood at 7.1%; in assay [1] (100 mg/ml coating), 34.6%; in assay [3] (Example 8, 50 mg/ml coating), 66.7%. For the same substance, the “FLUORESCENCE - PERCENT POSITIVE 2 HR” value turned out to be 67.9% in assay [1] (50 mg/ml coating); 61.5% in assay [1] (100 mg/ml coating); 74.1% in assay [3] (Example 8, 50 mg/ml coating). Moreover, the “FLUORESCENCE - PERCENT POSITIVE 3 HR” value came to 89.3% in assay [1] (50 mg/ml coating); 69.2% in assay [1] (100 mg/ml coating); 77.8% in assay [3] (Example 8, 50 mg/ml coating). Besides, the “FLUORESCENCE - PERCENT POSITIVE 4 HR” value was 92.9% in assay [1] (50 mg/ml coating); 69.2% in assay [1] (100 mg/ml coating); 77.8% in assay [3] (Example 8, 50 mg/ml coating). The “NO. GROWTH POSITIVE 168 HR” value in assay [2] (50 mg/ml coating) is recorded as 28; in assay [2] (100 mg/ml coating), 26; in assay [4] (Example 8, 50 mg/ml coating), 27. In addition, the “FLUORESCENCE - PERCENT POSITIVE 5 HR” value in assay [3] (Example 8, 50 mg/ml coating) amounted to 77.8%.
As to Decaglyceral Hexaoleate, in assay [1] (50 mg/ml coating), the “FLUORESCENCE - PERCENT POSITIVE 1 HR” value is recorded as 0%, the “FLUORESCENCE - PERCENT POSITIVE 2 HR” value came to 0%, the “FLUORESCENCE - PERCENT POSITIVE 3 HR” value was 22.2% and the “FLUORESCENCE - PERCENT POSITIVE 4 HR” value came out at 55.6%. Moreover, in assay [1] (100 mg/ml coating), the “FLUORESCENCE - PERCENT POSITIVE 1 HR” value was determined as 5.6%, the “FLUORESCENCE - PERCENT POSITIVE 2 HR” value was 16.7%, the “FLUORESCENCE - PERCENT POSITIVE 3 HR” value turned out to be 27.8% and the “FLUORESCENCE - PERCENT POSITIVE 4 HR” value turned out to be 33.3%. Besides, the “NO. GROWTH POSITIVE 168 HR” value in assay [2] (50 mg/ml coating) came to 9. Besides, the “NO. GROWTH POSITIVE 168 HR” value in assay [2] (100 mg/ml coating) amounted to 18. Also, the “accuracy of sterilization indicators compared to indicators made with untreated spores” value in assay [3] (1–3 hours after exposure) was “improved”. In assay [3] (Example 6, 10 mg/ml coating), the “FLUORESCENCE - PERCENT POSITIVE 1 HR” value is listed as 100%, the “FLUORESCENCE - PERCENT POSITIVE 2 HR” value amounted to 100%, the “FLUORESCENCE - PERCENT POSITIVE 3 HR” value amounted to 100% and the “FLUORESCENCE - PERCENT POSITIVE 4 HR” value stood at 100%. Moreover, the “FLUORESCENCE - PERCENT POSITIVE 5 HR” value in assay [3] (Example 6, 10 mg/ml coating) came to 100%. The “NO. GROWTH POSITIVE 168 HR” value in assay [4] (Example 6, 10 mg/ml coating) is 12.

The record behind these values is patent US7045343B2, “Sterilization indicator test packs” (3M Innovative Properties Company, priority 1998, dated 2006).
